From US20210300943A1, “OGA INHIBITOR COMPOUNDS” (Janssen Pharmaceutica NV, priority 2018, published 2021) come the findings set out here.

The target in the assay is T1, OGA (Mus musculus, UniProt Q9EQQ9).
T1 construct: from tissue; host or cells: mouse brain (right hemisphere sagittal sections, forebrain area)
T1 sequence (Q9EQQ9 1-916): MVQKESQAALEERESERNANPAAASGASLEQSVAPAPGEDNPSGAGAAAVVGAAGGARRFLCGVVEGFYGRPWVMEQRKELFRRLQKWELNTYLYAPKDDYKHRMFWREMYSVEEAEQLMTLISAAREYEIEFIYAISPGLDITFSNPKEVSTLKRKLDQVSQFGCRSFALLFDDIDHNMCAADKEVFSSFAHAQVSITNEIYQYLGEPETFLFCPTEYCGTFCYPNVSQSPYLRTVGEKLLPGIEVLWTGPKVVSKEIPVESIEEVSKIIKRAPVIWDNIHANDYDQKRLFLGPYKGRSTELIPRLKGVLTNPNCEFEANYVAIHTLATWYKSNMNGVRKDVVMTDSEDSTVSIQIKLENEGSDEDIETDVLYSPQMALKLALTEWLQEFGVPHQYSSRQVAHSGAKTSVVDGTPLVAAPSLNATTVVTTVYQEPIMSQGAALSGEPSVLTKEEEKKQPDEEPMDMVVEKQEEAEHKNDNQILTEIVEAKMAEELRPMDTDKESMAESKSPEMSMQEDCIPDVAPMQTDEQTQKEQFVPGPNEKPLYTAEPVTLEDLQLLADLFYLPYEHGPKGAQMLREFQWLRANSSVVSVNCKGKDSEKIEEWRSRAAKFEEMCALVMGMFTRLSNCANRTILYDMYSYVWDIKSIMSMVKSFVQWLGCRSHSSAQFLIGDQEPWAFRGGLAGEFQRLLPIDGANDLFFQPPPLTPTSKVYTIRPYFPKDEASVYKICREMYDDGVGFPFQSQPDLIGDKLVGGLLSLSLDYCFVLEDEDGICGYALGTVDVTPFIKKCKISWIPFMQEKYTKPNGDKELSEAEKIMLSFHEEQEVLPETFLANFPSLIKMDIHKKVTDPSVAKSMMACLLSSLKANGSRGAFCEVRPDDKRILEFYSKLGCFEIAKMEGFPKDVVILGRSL
Briefly: Ex vivo OGA occupancy assay using [3H]-ligand. The following applies: po, male NMRI or C57Bl6j mice, p.o., 24 h after administration, forebrain area of brain sections, 3 nM [3H]-ligand, normalised to vehicle, read-out: Occupancy (% +/- sd). Format: in vivo. As for the experimental part: Ex Vivo Oga Occupancy Assay Using [^3H]-Ligand
Drug Treatment and Tissue Preparation
Male NMRI or C57Bl6j mice were treated by oral (p.o.) administration of vehicle or compound. Animals were sacrificed 24 hours after administration. Brains were immediately removed from the skull, hemispheres were separated and the right hemisphere, for ex vivo OGA occupancy assay, was rapidly frozen in dry-ice cooled 2-methylbutane (−40° C.). […] sagittal sections were cut using a Leica CM 3050 cryostat-microtome (Leica, Belgium), thaw-mounted on microscope slides (SuperFrost Plus Slides, Thermo Fisher Scientific) and stored at −20° C. until use. After thawing, sections were dried under a cold stream of air. The sections were not washed prior to incubation. The 10 minutes incubation with 3 nM [^3H]-ligand was rigorously controlled. All brain sections (from compound-treated and vehicle-treated animals) were incubated in parallel. […]
Quantitative autoradiography and data analysis Radioactivity in the forebrain area of brain slices was measured using a β-imager with M3 vision analysis software (Biospace Lab, Paris). Specific binding was calculated as the difference between total binding and non-specific binding measured in Thiamet-G (10 μM) treated sections. […]

For `Cc1cc([C@H]2CCCN(C(C)c3cnc4c(c3)OCCN4)C2)cc(C)n1` (single isomer, unassigned) [Product 135], the receptor occupancy at 25 mg/kg was determined as 20.7%. Regarding `Cc1cc(OC[C@H]2CCCN(C(C)c3nc4c(cc3F)OCCO4)C2)cc(C)n1` (single isomer, unassigned) [Product 155], the receptor occupancy at 25 mg/kg stood at 92.7%.
